Experimental data published in patent publication US9663473B2 (Actelion Pharmaceuticals Ltd, priority 2013, dated 2017).
Structures can show the parent of a compound that is named as a salt.

Target: T1, recombinant human ALX receptor (Homo sapiens, UniProt P25090)
T1 construct: expressed in transfected cells; host or cells: HEK293 (HEK293-hALXR-Gα16)
T1 sequence (P25090 1-351): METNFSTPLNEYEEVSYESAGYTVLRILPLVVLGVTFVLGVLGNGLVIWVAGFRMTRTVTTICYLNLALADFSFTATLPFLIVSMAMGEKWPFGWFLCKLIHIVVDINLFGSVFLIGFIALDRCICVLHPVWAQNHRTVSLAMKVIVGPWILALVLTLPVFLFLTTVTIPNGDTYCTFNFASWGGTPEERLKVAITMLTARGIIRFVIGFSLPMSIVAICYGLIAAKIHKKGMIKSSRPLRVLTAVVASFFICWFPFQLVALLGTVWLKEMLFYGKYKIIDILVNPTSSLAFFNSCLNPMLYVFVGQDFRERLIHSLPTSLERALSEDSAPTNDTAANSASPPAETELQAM
Assay: Intracellular calcium measurements (FLIPR), ALX receptor agonistic activity
Assay type: cell-based
Settings: HEK293-hALXR-Gα16 cells, Fluo-4 calcium signal, normalized to WKYMVm 10 nM
Experimental: The ALX receptor agonistic activity of the compounds of formula (I) is determined in accordance with the following experimental method.
Intracellular Calcium Measurements:
Cells expressing recombinant human ALX receptor and the G-protein Gα16 (HEK293-hALXR-Gα16) were grown to 80% confluency in Growing Medium (GM). Cells were detached from culture dishes with a cell dissociation buffer (Invitrogen, 13151-014), and collected by centrifugation at 1′000 rpm at rt for 5 min in Assay Buffer (AB) (equal parts of Hank's BSS (Gibco, 14065-049) and DMEM without Phenol Red (Gibco, 11880-028)). After 60 min incubation at 37° C. under 5% CO2 in AB supplemented with 1 μM Fluo-4 (AM) (Invitrogen, F14202) and 20 mM HEPES (Gibco, 15630-056), the cells were washed and resuspended in AB. They were then seeded onto 384-well FLIPR assay plates (Greiner, 781091) at 50′000 cells in 70 μl per well and sedimented by centrifugation at 1′000 rpm for 1 min. Stock solutions of test compounds were made up at a concentration of 10 mM in DMSO, and serially diluted in AB to concentrations required for activation dose response curves. WKYMVm (Phoenix Peptides) was used as a reference agonist. A FLIPR Tetra instrument (Molecular Devices) was operated according to the manufacturer's standard instructions, adding 4 μl of test compound dissolved at 10 mM in DMSO and diluted prior to the experiment in assay buffer to obtain the desired final concentration. Changes in fluorescence were monitored before and after the addition of test compounds at lex=488 nm and lem=540 nm. Emission peak values above base level after compounds addition were exported after base line subtraction. Values were normalized to high-level control (WKYMVm compound, 10 nM final concentration) after subtraction of the base line value (AB addition).

Molecule `COc1ccc(CC(NC(=O)NC23CCC(O)(CC2)CC3)c2nc3ccc(F)cc3[nH]2)c(F)c1` (single isomer, unassigned; ent-1) [Example 263, 1-(1-(6-Fluoro-1H-benzo[d]imidazol-2-yl)-2-(2-fluoro-4-methoxyphenyl)ethyl)-3-(4-hydroxybicyclo[2.2.2]octan-1-yl)urea (ent-1)] has an EC50 of 1.4 nM.
Work on `COc1ccc(C[C@@H](NC(=O)Nc2c(-c3ccccc3)noc2C)c2nc3ccccc3[nH]2)cc1` [Example 213, (R)-1-(1-(1H-Benzo[d]imidazol-2-yl)-2-(4-methoxyphenyl)ethyl)-3-(5-methyl-3-phenylisoxazol-4-yl)urea] yielded an EC50 of 53 nM.
For `COc1ccc(CC(NC(=O)N[C@H]2CC[C@H](O)CC2)c2nc3cc(Br)c(Br)cc3[nH]2)cc1` (single isomer, unassigned; ent-1) [Example 425, 1-(1-(5,6-dibromo-1H-benzo[d]imidazol-2-yl)-2-(4-methoxyphenyl)ethyl)-3-(trans-4-hydroxycyclohexyl)urea (ent-1)], the EC50 was 119 nM.
`COc1ccc(C[C@@H](NC(=O)NC2CCC(C)CC2)c2nc3ccccc3[nH]2)cc1` (stereo partly drawn) [Example 22, (R)-1-(1-(1H-Benzo[d]imidazol-2-yl)-2-(4-methoxyphenyl)ethyl)-3-(4-methylcyclohexyl)urea] showed an EC50 of 85 nM.
`COc1ccc(C[C@@H](NC(=O)N[C@@H]2CCCN(C(C)=O)C2)c2nc3ccccc3[nH]2)cc1` [Example 140, 1-((R)-1-(1H-Benzo[d]imidazol-2-yl)-2-(4-methoxyphenyl)ethyl)-3-((R)-1-acetylpiperidin-3-yl)urea] was tested, and the EC50 was 62 nM.
Molecule `COC[C@@H](NC(=O)N[C@H](Cc1ccc(OC)cc1)c1nc2ccccc2[nH]1)c1ccccc1` [Example 200, 1-((R)-1-(1H-Benzo[d]imidazol-2-yl)-2-(4-methoxyphenyl)ethyl)-3-((S)-2-methoxy-1-phenylethyl)urea] has an EC50 of 53 nM.
With `COc1ccc(CC(NC(=O)NC23CCC(O)(CC2)CC3)c2nc3ccc(F)cc3[nH]2)cc1F` (single isomer, unassigned; ent-2) [Example 372, 1-(1-(6-Fluoro-1H-benzo[d]imidazol-2-yl)-2-(3-fluoro-4-methoxyphenyl)ethyl)-3-(4-hydroxybicyclo[2.2.2]octan-1-yl)urea (ent-2)] the EC50 was 769 nM.
Work on `COc1ccc(CC(NC(=O)Nc2ccnn2C)c2nc3ccccc3[nH]2)cc1` (stereo not drawn) [Example 418, 1-(1-(1H-benzo[d]imidazol-2-yl)-2-(4-methoxyphenyl)ethyl)-3-(1-methyl-1H-pyrazol-5-yl)urea] yielded an EC50 of 210 nM.
`COc1ccc(CNC(=O)N[C@H](Cc2ccc(OC)cc2)c2nc3ccccc3[nH]2)cc1` [Example 387, (R)-1-(1-(1H-Benzo[d]imidazol-2-yl)-2-(4-methoxyphenyl)ethyl)-3-(4-methoxybenzyl)urea] was tested, and the EC50 was 1370 nM.
For `C[C@]1(O)CC[C@H](NC(=O)NC(Cc2ccc(Br)cc2F)c2nc3ccccc3[nH]2)CC1` (mixture of isomers) [Example 253, 1-(1-(1H-Benzo[d]imidazol-2-yl)-2-(4-bromo-2-fluorophenyl)ethyl)-3-(trans-4-hydroxy-4-methylcyclohexyl)urea], the EC50 was 25 nM.
`COc1ccc(CC(NC(=O)NC2CCC(C)(O)CC2)c2nc3ccccc3[nH]2)c(F)c1` (single isomer, unassigned; ent-1) [Example 311, 1-(1-(1H-Benzo[d]imidazol-2-yl)-2-(2-fluoro-4-methoxyphenyl)ethyl)-3-(trans-4-hydroxy-4-methylcyclohexyl)urea (ent-1)] was tested, and the EC50 was 3.6 nM.
`CC(F)(F)c1ccc(CC(NC(=O)N[C@H]2CC[C@H](O)CC2)c2nc3ccccc3[nH]2)cc1` (relative stereo) [Example 393, 1-(1-(1H-Benzo[d]imidazol-2-yl)-2-(4-(1,1-difluoroethyl)phenyl)ethyl)-3-(trans-4-hydroxycyclohexyl)urea] showed an EC50 of 3.9 nM.
For `COc1ccc(C[C@@H](NC(=O)Nc2cc(C)n(C)n2)c2nc3ccccc3[nH]2)cc1` [Example 7, (R)-1-(1-(1H-Benzo[d]imidazol-2-yl)-2-(4-methoxyphenyl)ethyl)-3-(1,5-dimethyl-1H-pyrazol-3-yl)urea], the EC50 was 315 nM.
For `COc1cc(F)c(CC(NC(=O)NC23CCC(O)(CC2)CC3)c2nc3ccc(F)cc3[nH]2)c(F)c1` (single isomer, unassigned; ent-2) [Example 373, 1-(2-(2,6-Difluoro-4-methoxyphenyl)-1-(6-fluoro-1H-benzo[d]imidazol-2-yl)ethyl)-3-(4-hydroxybicyclo[2.2.2]octan-1-yl)urea (ent-2)], the EC50 was 107 nM.
Work on `COc1ccc(CC(NC(=O)N[C@H]2CC[C@H](O)CC2)c2nc3cc(F)ccc3[nH]2)c(F)c1F` (single isomer, unassigned; ent-1) [Example 375, 1-(2-(2,3-Difluoro-4-methoxyphenyl)-1-(5-fluoro-1H-benzo[d]imidazol-2-yl)ethyl)-3-(trans-4-hydroxycyclohexyl)urea (ent-1)] yielded an EC50 of 0.4 nM.
With `COc1ccc(CC(NC(=O)NCCN2CCCC2)c2nc3ccccc3[nH]2)cc1` (stereo not drawn) [Example 391, 1-(1-(1H-Benzo[d]imidazol-2-yl)-2-(4-methoxyphenyl)ethyl)-3-(2-(pyrrolidin-1-yl)ethyl)urea] the EC50 was 2720 nM.
For `COc1ccc(CC(NC(=O)N[C@H]2CC[C@H](O)CC2)c2nc3ccc(F)cc3[nH]2)c(F)c1` (relative stereo) [Example 244, 1-(1-(6-Fluoro-1H-benzo[d]imidazol-2-yl)-2-(2-fluoro-4-methoxyphenyl)ethyl)-3-(trans-4-hydroxycyclohexyl)urea], the EC50 was 1.1 nM.
With `COc1ccc(C[C@@H](NC(=O)NCCc2cccc(Cl)c2)c2nc3ccccc3[nH]2)cc1` [Example 61, (R)-1-(1-(1H-Benzo[d]imidazol-2-yl)-2-(4-methoxyphenyl)ethyl)-3-(3-chlorophenethyl)urea hydrochloride] the EC50 was 239 nM.
`COc1ccc(C[C@@H](NC(=O)NC2CCCC(C)C2)c2nc3ccccc3[nH]2)cc1` (stereo partly drawn) [Example 33, 1-((R)-1-(1H-Benzo[d]imidazol-2-yl)-2-(4-methoxyphenyl)ethyl)-3-(3-methylcyclohexyl)urea] showed an EC50 of 130 nM.
For `COc1ccc(C[C@@H](NC(=O)NC2CCCN(CC(F)F)C2)c2nc3ccccc3[nH]2)cc1` (stereo partly drawn) [Example 186, 1-((R)-1-(1H-Benzo[d]imidazol-2-yl)-2-(4-methoxyphenyl)ethyl)-3-(-1-(2,2-difluoroethyl)piperidin-3-yl)urea], the EC50 was 29 nM.
`COc1ccc(C[C@@H](NC(=O)N[C@@H]2CCNC[C@@H]2F)c2nc3ccccc3[nH]2)cc1` (relative stereo) [Example 164, 1-((R)-1-(1H-Benzo[d]imidazol-2-yl)-2-(4-methoxyphenyl)ethyl)-3-((3S*,4R*)-3-fluoropiperidin-4-yl)urea] gave an EC50 of 25 nM.
In the case of `COc1ccc(C[C@@H](NC(=O)N[C@H]2CCc3ccccc32)c2nc3ccccc3[nH]2)cc1` [Example 20, 1-((R)-1-(1H-Benzo[d]imidazol-2-yl)-2-(4-methoxyphenyl)ethyl)-3-((S)-2,3-dihydro-1H-inden-1-yl)urea], the EC50 is reported as 712 nM.
In the case of `CCC[C@@H](NC(=O)N[C@H](Cc1ccc(OC)cc1)c1nc2ccccc2[nH]1)c1ccccc1` [Example 335, 1-((R)-1-(1H-Benzo[d]imidazol-2-yl)-2-(4-methoxyphenyl)ethyl)-3-((R)-1-phenylbutyl)urea], the EC50 is reported as 372 nM.
`COc1ccc(C[C@@H](NC(=O)NCc2ccccc2)c2nc3ccccc3[nH]2)cc1` [Example 392, (R)-1-(1-(1H-Benzo[d]imidazol-2-yl)-2-(4-methoxyphenyl)ethyl)-3-benzylurea] was tested, and the EC50 was 2410 nM.
With `COc1ccc(CC(NC(=O)NC2CCCC2)c2nc3ccccc3[nH]2)cc1F` (stereo not drawn) [Example 175, 1-(1-(1H-Benzo[d]imidazol-2-yl)-2-(3-fluoro-4-methoxyphenyl)ethyl)-3-cyclopentylurea] the EC50 was 209 nM.
For `COc1ccc(CC(NC(=O)NC2CCN(C)CC2)c2nc3ccccc3[nH]2)cc1` (stereo not drawn) [Example 49, 1-(1-(1H-Benzo[d]imidazol-2-yl)-2-(4-methoxyphenyl)ethyl)-3-(1-methylpiperidin-4-yl)urea], the EC50 was 85 nM.
`COc1ccc(C[C@@H](NC(=O)NCCC2CCNCC2)c2nc3ccccc3[nH]2)cc1` [Example 156, (R)-1-(1-(1H-Benzo[d]imidazol-2-yl)-2-(4-methoxyphenyl)ethyl)-3-(2-(piperidin-4-yl)ethyl)urea] gave an EC50 of 94 nM.
